Data: ChEMBL document CHEMBL1201862, “PubChem BioAssay data set” (2004)
Activity calls are given as the source filed them.

Experiments:
[1] = biological target: Peroxisome proliferator-activated receptor gamma/Nuclear receptor coactivator 3 (Homo sapiens, UniProt P37231); assay: TR-FRET dose response biochemical High Throughput Screening assay for agonists of the steroid receptor coactivator 3 (SRC-3) recruitment by the peroxisome proliferator-activated receptor gamma (PPAR gamma): non-selective agonists. [Related pubchem assays: 1301 (Confirmation screen.), 1048 (Primary screen.)]; assay type: functional
Peroxisome proliferator-activated receptor gamma/Nuclear receptor coactivator 3, sequence (P37231 whole entry): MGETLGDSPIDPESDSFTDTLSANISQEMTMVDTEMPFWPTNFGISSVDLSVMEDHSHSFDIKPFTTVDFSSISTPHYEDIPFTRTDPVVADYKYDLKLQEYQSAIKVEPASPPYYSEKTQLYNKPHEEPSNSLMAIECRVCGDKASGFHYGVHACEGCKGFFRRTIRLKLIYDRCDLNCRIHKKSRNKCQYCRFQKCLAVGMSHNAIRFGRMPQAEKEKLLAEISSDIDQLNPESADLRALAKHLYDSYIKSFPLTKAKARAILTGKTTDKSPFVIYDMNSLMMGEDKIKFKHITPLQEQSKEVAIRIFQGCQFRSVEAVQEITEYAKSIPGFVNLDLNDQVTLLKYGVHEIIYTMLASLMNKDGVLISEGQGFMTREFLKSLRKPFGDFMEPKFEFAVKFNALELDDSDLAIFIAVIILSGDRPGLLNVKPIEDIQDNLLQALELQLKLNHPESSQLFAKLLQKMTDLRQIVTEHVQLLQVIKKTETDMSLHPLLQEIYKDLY
Peroxisome proliferator-activated receptor gamma/Nuclear receptor coactivator 3, sequence (Q9Y6Q9 whole entry, further chain): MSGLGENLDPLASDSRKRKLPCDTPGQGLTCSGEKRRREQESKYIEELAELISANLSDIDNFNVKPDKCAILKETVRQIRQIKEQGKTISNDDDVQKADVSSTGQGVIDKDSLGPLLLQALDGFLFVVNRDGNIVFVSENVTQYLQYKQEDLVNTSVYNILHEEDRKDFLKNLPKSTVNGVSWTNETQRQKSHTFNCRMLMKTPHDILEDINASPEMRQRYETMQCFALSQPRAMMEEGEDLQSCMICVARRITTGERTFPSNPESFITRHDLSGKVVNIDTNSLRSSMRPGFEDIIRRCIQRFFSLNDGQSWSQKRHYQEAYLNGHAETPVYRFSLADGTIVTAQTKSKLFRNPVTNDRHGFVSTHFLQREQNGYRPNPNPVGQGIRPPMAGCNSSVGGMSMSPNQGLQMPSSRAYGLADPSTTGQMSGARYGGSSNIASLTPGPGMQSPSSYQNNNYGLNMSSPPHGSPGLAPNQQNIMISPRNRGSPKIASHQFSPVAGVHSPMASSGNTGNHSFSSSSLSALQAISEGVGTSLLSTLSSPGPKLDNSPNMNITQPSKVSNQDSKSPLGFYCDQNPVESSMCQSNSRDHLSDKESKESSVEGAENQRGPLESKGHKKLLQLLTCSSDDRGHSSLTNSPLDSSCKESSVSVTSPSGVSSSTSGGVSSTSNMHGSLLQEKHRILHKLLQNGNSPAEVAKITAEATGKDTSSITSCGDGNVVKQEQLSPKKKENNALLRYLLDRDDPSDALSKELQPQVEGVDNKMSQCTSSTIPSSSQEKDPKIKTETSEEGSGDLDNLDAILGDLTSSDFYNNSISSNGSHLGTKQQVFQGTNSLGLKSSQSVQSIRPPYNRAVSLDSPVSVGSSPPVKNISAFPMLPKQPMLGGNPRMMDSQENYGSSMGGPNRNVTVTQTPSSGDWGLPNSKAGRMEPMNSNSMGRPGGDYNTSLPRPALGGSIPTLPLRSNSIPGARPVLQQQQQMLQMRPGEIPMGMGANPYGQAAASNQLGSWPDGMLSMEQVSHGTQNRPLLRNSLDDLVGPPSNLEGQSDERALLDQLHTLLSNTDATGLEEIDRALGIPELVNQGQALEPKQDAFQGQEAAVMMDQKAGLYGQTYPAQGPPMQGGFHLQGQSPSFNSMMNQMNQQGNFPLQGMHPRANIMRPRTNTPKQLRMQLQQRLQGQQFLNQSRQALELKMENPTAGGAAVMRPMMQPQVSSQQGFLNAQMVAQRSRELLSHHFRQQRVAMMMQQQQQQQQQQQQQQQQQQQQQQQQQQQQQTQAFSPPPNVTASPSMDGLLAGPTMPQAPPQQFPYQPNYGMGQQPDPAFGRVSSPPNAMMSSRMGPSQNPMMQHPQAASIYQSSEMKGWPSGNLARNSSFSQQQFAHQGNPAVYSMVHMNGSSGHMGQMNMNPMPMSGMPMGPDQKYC

[2] = system: HEK293; assay: Fluorescence-based counterscreen for potentiators or agonists of NPY-Y2: cell-based high-throughput dose response assay to identify inhibitors of cyclic nucleotide gated ion channel (CNGC) activity. In this assay, the parental HEK293 cell line transfected with a cyclic-nucleotide gated ion channel (CNGC)-based cAMP sensor is used to measure inhibition of isoproterenol-induced CNGC activity by test compound.; assay type: functional; settings: Homo sapiens;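 note: stimulus is 1 µM isoproterenol at EC100 plus PDE inhibitor Ro 20-1724 at 25 µM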
[3] = biological target: Neuropeptide Y receptor type 1 (Homo sapiens, UniProt P25929); assay: Fluorescence-based counterscreen for agonists of NPY-Y2: cell-based high-throughput dose response assay for agonists of NPY-Y1.; assay type: functional
Neuropeptide Y receptor type 1, sequence (P25929 whole entry): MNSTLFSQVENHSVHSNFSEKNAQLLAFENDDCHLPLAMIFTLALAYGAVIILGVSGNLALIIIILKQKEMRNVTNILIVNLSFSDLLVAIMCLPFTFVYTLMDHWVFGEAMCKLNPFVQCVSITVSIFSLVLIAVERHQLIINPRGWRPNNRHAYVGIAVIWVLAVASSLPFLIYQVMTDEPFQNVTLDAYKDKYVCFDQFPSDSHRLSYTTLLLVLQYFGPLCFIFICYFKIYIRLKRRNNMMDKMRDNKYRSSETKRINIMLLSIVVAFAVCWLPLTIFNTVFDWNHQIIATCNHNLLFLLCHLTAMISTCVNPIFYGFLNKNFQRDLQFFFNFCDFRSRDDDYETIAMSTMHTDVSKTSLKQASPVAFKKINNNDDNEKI

[4] = biological target: Neuropeptide Y receptor type 2 (Homo sapiens, UniProt P49146); assay: Fluorescence-based cell-based high-throughput dose response assay for agonists of NPY-Y2. [Related pubchem assays: 1703 (Screening assay (CNGC inhibitors).), 1359 (Screening assay (NPY-Y2 potentiators or agonists).), 1304 (Screening assay (NPY-Y1 potentiators or agonists).), 1710 (Screening assay (NPY-Y2 agonists).), 1791 (Summary AID.)]; assay type: functional
Neuropeptide Y receptor type 2, sequence (P49146 whole entry): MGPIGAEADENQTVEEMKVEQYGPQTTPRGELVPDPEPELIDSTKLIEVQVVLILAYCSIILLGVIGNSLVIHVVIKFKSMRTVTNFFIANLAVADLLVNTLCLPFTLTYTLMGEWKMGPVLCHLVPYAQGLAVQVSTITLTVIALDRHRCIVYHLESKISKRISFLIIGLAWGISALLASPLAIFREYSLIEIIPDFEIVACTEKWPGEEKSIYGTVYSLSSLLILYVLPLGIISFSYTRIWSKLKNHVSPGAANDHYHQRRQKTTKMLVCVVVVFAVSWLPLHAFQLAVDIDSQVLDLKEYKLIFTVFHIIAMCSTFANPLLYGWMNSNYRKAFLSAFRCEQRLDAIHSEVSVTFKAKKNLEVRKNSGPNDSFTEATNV

[5] = biological target: Peroxisome proliferator-activated receptor gamma/Nuclear receptor coactivator 2 (Homo sapiens, UniProt P37231); assay: (§1) TR-FRET dose response biochemical High Throughput Screening assay for agonists of the steroid receptor coactivator 2 (SRC-2) recruitment by the peroxisome proliferator-activated receptor gamma (PPAR gamma): non-selective agonists. [Related pubchem assays: 1297, 1032 ]; assay type: functional
[6] = biological target: Peroxisome proliferator-activated receptor gamma/Nuclear receptor coactivator 1 (Homo sapiens, UniProt P37231); assay: as §1, with “1 (SRC-1)” for “2 (SRC-2)”, “assays (depositor defined):AID1300, AID1808, AID504735, AID631]” for “assays: 1297, 1032 ]”; assay type: protein assay
[7] = biological target: T1, Insulin-degrading enzyme (Homo sapiens, UniProt P14735); assay: Dose Response: Fluorescence polarization-based cell-based high throughput dose response assay for inhibitors of insulin-degrading enzyme (IDE). [Related pubchem assays: 434962 (Primary screen (IDE inhibitors in singlicate)), 449730 (Counterscreen (Cytotoxicity in triplicate)), 435028 (Confirmation (IDE inhibitors in triplicate)), 434984 (Summary …; assay type: functional
T1 sequence (P14735 whole entry): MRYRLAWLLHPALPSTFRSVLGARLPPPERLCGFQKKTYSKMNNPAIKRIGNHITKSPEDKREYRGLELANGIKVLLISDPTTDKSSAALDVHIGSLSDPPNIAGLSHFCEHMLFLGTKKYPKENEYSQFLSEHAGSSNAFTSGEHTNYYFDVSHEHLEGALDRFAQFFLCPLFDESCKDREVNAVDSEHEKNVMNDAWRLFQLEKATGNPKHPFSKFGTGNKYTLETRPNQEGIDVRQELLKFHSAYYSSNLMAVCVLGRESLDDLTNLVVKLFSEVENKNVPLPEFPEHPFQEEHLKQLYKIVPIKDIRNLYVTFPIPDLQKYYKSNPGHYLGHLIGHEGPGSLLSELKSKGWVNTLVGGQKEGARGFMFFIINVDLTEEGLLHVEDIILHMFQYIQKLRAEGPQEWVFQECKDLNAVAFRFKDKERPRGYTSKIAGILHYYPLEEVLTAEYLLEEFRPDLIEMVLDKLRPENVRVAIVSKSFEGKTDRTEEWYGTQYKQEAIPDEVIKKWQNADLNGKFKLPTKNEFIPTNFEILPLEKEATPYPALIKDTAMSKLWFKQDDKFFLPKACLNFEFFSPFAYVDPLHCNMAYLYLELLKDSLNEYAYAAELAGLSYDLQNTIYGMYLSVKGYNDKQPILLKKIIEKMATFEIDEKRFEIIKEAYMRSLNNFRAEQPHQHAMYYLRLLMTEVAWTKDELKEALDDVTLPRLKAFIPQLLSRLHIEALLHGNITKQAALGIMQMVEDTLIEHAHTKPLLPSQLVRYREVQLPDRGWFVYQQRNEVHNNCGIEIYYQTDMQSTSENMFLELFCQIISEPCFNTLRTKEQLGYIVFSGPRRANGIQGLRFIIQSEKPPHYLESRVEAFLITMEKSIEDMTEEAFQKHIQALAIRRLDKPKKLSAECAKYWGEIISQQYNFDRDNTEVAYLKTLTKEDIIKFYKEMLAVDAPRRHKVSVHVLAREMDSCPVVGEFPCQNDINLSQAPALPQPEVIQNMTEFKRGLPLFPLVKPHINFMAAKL

[8] = Counterscreen for IDE inhibitors: Luminescence-based cell-based high throughput dose response assay to identify compounds that are cytotoxic to HEK cells. [Related pubchem assays: 434962 (Primary screen (IDE inhibitors in singlicate)), 449730 (Counterscreen (Cytotoxicity in triplicate)), 435028 (Confirmation (IDE inhibitors in triplicate)) …; assay type: functional; settings: HEK293
[9] = A cytotoxicity screen of small molecule inhibitors of the PhoP region in Salmonella typhi identified in the primary screen. [Related pubchem assays: 1850, 1864, 1985 ]; assay type: functional
[10] = system: Staphylococcus aureus; assay: Inhibitors of Bacterial Quorum Sensing Structure Activity Relationship (SAR) Analysis: Dose Response Assay. [Related pubchem assays: 700, 527 ]; assay type: functional, organism-based
[11] = biological target: Transitional endoplasmic reticulum ATPase (Homo sapiens, UniProt P55072); assay: p97 ATPase inhibitors, dose response, biochemical (AID 1534)
Transitional endoplasmic reticulum ATPase (Homo sapiens, UniProt P55072), sequence (P55072 whole entry): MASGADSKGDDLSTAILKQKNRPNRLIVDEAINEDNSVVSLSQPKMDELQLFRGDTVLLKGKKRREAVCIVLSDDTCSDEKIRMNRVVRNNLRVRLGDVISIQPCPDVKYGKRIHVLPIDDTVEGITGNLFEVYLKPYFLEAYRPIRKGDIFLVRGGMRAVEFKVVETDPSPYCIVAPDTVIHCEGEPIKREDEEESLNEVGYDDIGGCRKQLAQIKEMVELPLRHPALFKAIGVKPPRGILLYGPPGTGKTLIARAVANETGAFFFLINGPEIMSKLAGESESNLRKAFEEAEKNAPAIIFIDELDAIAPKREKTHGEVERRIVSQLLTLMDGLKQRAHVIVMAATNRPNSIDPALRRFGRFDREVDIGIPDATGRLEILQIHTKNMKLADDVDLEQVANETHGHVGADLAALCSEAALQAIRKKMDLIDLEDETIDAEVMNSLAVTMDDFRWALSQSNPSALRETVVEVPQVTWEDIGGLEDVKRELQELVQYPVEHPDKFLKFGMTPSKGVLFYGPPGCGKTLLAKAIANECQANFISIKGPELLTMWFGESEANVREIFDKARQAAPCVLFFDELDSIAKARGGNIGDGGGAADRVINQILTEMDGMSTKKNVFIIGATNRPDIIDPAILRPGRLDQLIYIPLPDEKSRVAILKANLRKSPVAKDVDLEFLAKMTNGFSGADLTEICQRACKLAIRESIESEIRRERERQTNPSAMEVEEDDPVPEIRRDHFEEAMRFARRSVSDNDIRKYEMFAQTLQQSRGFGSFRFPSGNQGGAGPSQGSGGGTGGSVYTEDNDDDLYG

[12] = biological target: Transitional endoplasmic reticulum ATPase (Homo sapiens, UniProt P55072, C522A); assay: C522A mutant p97 ATPase inhibitors, dose response, counter-screen for p97 inhibitor project, biochemical, luminescence (AID 1544)
[13] = biological target: Cytochrome P450 3A4 (Homo sapiens, UniProt P08684); settings: Potency;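 note: confirmatory qHTS run detecting inhibitors and substrates of CYP3A4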
Cytochrome P450 3A4, sequence (P08684 whole entry): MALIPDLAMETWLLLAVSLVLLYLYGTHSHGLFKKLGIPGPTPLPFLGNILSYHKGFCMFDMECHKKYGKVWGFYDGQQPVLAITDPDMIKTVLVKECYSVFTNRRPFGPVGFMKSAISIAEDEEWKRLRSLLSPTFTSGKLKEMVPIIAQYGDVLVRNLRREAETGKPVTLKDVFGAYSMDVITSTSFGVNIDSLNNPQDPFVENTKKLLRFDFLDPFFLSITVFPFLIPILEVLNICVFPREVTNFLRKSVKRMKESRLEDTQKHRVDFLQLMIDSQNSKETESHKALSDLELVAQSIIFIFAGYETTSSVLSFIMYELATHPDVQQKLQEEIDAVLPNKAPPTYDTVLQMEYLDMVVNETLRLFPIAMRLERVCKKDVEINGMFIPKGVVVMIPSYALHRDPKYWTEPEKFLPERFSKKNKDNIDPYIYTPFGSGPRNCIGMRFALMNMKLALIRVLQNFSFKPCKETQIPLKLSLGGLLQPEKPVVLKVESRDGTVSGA

[14] = biological target: Cytochrome P450 2C9 (Homo sapiens, UniProt P11712); settings: Potency
Cytochrome P450 2C9, sequence (P11712 whole entry): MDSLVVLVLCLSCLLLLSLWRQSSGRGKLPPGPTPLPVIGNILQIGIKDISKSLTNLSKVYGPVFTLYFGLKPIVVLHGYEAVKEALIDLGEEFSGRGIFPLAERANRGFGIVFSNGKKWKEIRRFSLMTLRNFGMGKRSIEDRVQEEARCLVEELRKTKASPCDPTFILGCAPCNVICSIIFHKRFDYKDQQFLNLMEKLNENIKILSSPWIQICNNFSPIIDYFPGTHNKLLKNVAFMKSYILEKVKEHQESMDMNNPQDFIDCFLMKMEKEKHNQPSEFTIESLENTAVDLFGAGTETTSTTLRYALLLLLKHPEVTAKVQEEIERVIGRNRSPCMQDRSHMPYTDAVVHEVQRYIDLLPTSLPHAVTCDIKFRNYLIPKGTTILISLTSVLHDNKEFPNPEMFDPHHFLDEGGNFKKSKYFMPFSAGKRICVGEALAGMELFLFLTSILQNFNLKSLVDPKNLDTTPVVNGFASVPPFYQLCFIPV

**Q.** What does the source list for `CC(C)OC(=O)C(C)Nc1nnc(S)nc1O` (centres undefined)?
**A.** EC50 [1]: 35.1 µM (not active); EC50 [2]: > 35.4 µM (not active); EC50 [3]: > 35.4 µM (not active); EC50 [4]: > 35.4 µM (not active); EC50 [5]: 4.97 µM (active); EC50 [6]: 4.26 µM (active)

**Q.** Which IC50 [7] does the source give for `COC(=O)C1=C(C)N=c2s/c(=C/c3ccoc3)c(=O)n2C1c1ccccc1` (centres undefined) here?
**A.** The IC50 was > 2.07 µM (active).

**Q.** What about the IC50 [8] of the same molecule?
**A.** The IC50 was 16.3 µM (not active).

**Q.** Which EC50 [9] does the source give for `Cc1nn(-c2cc(N3CCNCC3)ccc2[N+](=O)[O-])c(=O)c2ccccc12` here?
**A.** The EC50 was > 50 µM (active).

**Q.** With `O=C(NCC(c1cccnc1)N1CCN(c2ccccc2F)CC1)c1cccc(Cl)c1` (centres undefined) as the molecule, how does the IC50 [10] read?
**A.** The IC50 was 0.597 µM (active).

**Q.** With `Fc1ccccc1-c1nc(NCc2ccccc2)c2ccccc2n1` as the molecule, how does the IC50 [11] read?
**A.** Its IC50 is > 50 µM (not active).

**Q.** And the IC50 [12]?
**A.** Its IC50 is > 50 µM (not active).

**Q.** With `COc1cc2c(cc1O)C[C@H]1c3c(cc(OC)c(O)c3-2)CCN1C` [ISOBOLDINE] as the molecule, how does the AC50 [13] read?
**A.** Its AC50 is 20 µM (inconclusive).

**Q.** And the AC50 [14]?
**A.** The AC50 was 25.1 µM (inconclusive).
